Source: article PMC7792806, “Development of Second Generation Activity-Based Chemical Probes for Sirtuins” (Molecules, 2020)

Target: SIRT6 (Homo sapiens, UniProt Q8N6T7)
Assay: Western blot of H3K9Ac in HEK293 cells
Assay type: cell-based
Source text: The ABPs structurally mimic acylated lysine substrates. However, the presence of substituents could potentially alter their cell permeability, cellular distribution, and target engagement ability. It is essential to determine if these probes are cell permeable and capable of inhibiting endogenous sirtuin activity. The sirtuin family of proteins are often referred to as the class III histone deacetylases (HDACs). Unlike class I and class II HDACs, which are Zn^2+-dependent, sirtuins are NAD^+-dependent. […] Similarly, other sirtuins may not be the only deacetylase of their endogenous substrates. Therefore, the inhibitory effect of the other ABPs may only become apparent when class I/II HADCs are inhibited at the same time. HEK293 cells were cultured in the presence of probe 2C and/or other HDAC inhibitors. Subsequently, the cell lysates were collected and probed for acetylated H3K9 (H3K9Ac), which is an endogenous substrate of SIRT6.
The cell lysate was resolved on a 10% SDS-PAGE gel and transferred to Immobilon PVDF transfer membrane (Millipore, Burlington, MA, USA). The blot was blocked with 5% nonfat milk, probed with primary antibody targeting H3K9Ac (Sigma-Aldrich, St. Louis, MO, USA), H3 (Abcam, Cambridge, MA, USA), acetyllysine or CPS1 (Cell Signaling Technology, Beverly, MA, USA), washed with PBST, followed by incubation with anti-rabbit or anti-mouse HRP conjugated secondary antibody. Then, the signal was detected by SuperSignal West Pico Chemiluminescent substrate (Thermo Fisher Scientific, Rockford, IL, USA).

Sequence of SIRT6 (Q8N6T7 whole entry): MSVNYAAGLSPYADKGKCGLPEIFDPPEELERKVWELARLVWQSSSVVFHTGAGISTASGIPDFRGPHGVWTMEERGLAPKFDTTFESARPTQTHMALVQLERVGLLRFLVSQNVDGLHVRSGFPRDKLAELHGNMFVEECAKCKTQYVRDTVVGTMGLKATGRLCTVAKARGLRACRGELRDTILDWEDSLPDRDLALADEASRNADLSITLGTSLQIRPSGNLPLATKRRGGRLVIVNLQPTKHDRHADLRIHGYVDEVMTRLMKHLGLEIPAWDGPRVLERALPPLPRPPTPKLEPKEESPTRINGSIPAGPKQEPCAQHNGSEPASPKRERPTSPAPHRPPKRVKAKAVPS

H3K9Ac level, combination with TSA (combined with TSA): significantly elevated level of H3K9Ac
H3K9Ac level, treatment alone (single agent): did not cause any appreciable changes
SMILES: C#CCCCC1(CCC(=O)N[C@@H](CCCCNC(=S)CCCCCCCCCCCCC)C(=O)N[C@@H](C)C(=O)N[C@@H](C)C(=O)OC)N=N1 [Probe 2C]
